The source of these data is ChEMBL document CHEMBL1255490, “In vitro activities of DC-159a, a novel fluoroquinolone, against Mycobacterium species” (Antimicrob Agents Chemother, 2010).

A word on the MIC50: it is an inhibitory concentration at the 50% level, which refers to growth in some studies and to a panel of isolates in others. The MIC90 is the lowest concentration that inhibits either 90% of growth or 90% of the strains tested, depending on the study. The Cmax is the highest concentration seen after dosing. One may read the AUC(0-t) as exposure summed from dosing to a finite time, without extrapolation to infinity. As usually defined, the MIC is the lowest concentration that inhibits growth of the organism.

SMILES strings stand for the structures. Converted amounts (≈) assume the structure as drawn.

In data set [1] the test system is Mycolicibacterium fortuitum. The data set can be described thus: Antimycobacterial activity against Mycobacterium fortuitum after 3 days by agar dilution method. The following applies: 72 h. It is filed as functional. Background: Agar dilution tests growth on a series of plates holding different concentrations.
The subject of data set [2] is Mycobacterium avium. Briefly: Antimycobacterial activity against Mycobacterium avium serovar 8 after 14 days by agar dilution method. It counts as functional. The following applies: serovar 8, 336 h.
Data set [3] relates to Mycobacterium avium. The data set can be described thus: Antimycobacterial activity against Mycobacterium avium serovar 4 after 14 days by agar dilution method. It counts as functional. The following applies: serovar 4, 336 h.
A short description of data set [4]: Cmax in monkey at 5 mg/kg, po. More on the design: dose 5 mg/kg, route oral. It counts as ADME, organism-based, Macaca mulatta. The following applies: rhesus monkey, in vivo.
A short description of data set [5]: AUC (0 to 24 hrs) in monkey at 5 mg/kg, po. It counts as ADME, organism-based, Macaca mulatta. On the set-up: time < 24 hr, dose 5 mg/kg, route oral. The following applies: rhesus monkey, plasma.
Another data set relates to Mycobacteroides chelonae. The data set can be described thus: Antimycobacterial activity against Mycobacterium chelonae after 3 days by agar dilution method. It is filed as functional. The following applies: 72 h.
The next data set deals with Mycobacterium kansasii. The data set can be described thus: Antimycobacterial activity against Mycobacterium kansasii after 7 days by agar dilution method. It counts as functional. The following applies: 168 h.
Data set [6] deals with Mycobacterium intracellulare. Briefly: Antimycobacterial activity against Mycobacterium intracellular serovar 16 after 21 days by agar dilution method. The following applies: serovar 16, 504 h. It counts as functional.
Data set [7] deals with Mycobacteroides abscessus. The data set can be described thus: Antimycobacterial activity against Mycobacterium abscessus after 3 days by agar dilution method. It is filed as functional. The following applies: 72 h.
The test system of data set [8] is Mycobacterium tuberculosis. Briefly: Antimycobacterial activity against drug-susceptible Mycobacterium tuberculosis after 21 days by agar dilution method. The following applies: 504 h. It is filed as functional.

`COc1c(N2CC3(CC3)[C@](C)(N)C2)c(F)cc2c(=O)c(C(=O)O)cn([C@@H]3C[C@@H]3F)c12`: the MIC50 in [1] worked out at 0.125 µg/mL (≈ 0.298 µM); in the data set on Mycobacterium avium [2], 1 µg/mL (≈ 2.38 µM); against Mycobacterium avium [3], 1 µg/mL (≈ 2.38 µM); against Mycobacteroides chelonae, 4 µg/mL (≈ 9.54 µM); with Mycobacterium kansasii, 0.06 µg/mL (≈ 0.143 µM); in data set [6], 1 µg/mL (≈ 2.38 µM). Besides, the MIC50 in [7] worked out at 8 µg/mL (≈ 19.1 µM); in data set [8] it was 0.06 µg/mL (≈ 0.143 µM). Besides, the MIC90 in [1] amounted to 0.25 µg/mL (≈ 0.596 µM); against Mycobacterium avium [2], 2 µg/mL (≈ 4.77 µM); against Mycobacterium avium [3] it was 2 µg/mL (≈ 4.77 µM); with Mycobacteroides chelonae it was 8 µg/mL (≈ 19.1 µM); with Mycobacterium kansasii, 0.125 µg/mL (≈ 0.298 µM); in [6], 4 µg/mL (≈ 9.54 µM). For the same compound, the MIC90 in data set [7] turned out to be 16 µg/mL (≈ 38.1 µM); in data set [8], 0.06 µg/mL (≈ 0.143 µM). The compound also gave a maximum concentration (Cmax) in [4] of 2200 ng/mL. Further, the exposure AUC(0-t) at 24 h in data set [5] was found to be 16900 ng·h/mL. In the data set with Mycobacteroides chelonae, this compound had an MIC of 4 µg/mL (≈ 9.54 µM).
Take `COc1c(N2CCNC(C)C2)c(F)cc2c(=O)c(C(=O)O)cn(C3CC3)c12` (configuration not stated) [GATIFLOXACIN]: the MIC50 in data set [1] was 0.125 µg/mL (≈ 0.333 µM); with Mycobacterium avium [2] it was 2 µg/mL (≈ 5.33 µM); with Mycobacterium avium [3], 2 µg/mL (≈ 5.33 µM); in the data set on Mycobacteroides chelonae it was 16 µg/mL (≈ 42.6 µM); in the data set on Mycobacterium kansasii, 0.125 µg/mL (≈ 0.333 µM); in [6] it was 4 µg/mL (≈ 10.7 µM). For the same compound, the MIC50 amounted to 32 µg/mL (≈ 85.2 µM) in data set [7] and 0.125 µg/mL (≈ 0.333 µM) in [8]. Besides, the MIC90 in [1] worked out at 0.25 µg/mL (≈ 0.666 µM); against Mycobacterium avium [2], 8 µg/mL (≈ 21.3 µM); in the data set on Mycobacterium avium [3], 8 µg/mL (≈ 21.3 µM); against Mycobacteroides chelonae, 32 µg/mL (≈ 85.2 µM); in the data set with Mycobacterium kansasii it was 0.5 µg/mL (≈ 1.33 µM); in data set [6] it was 16 µg/mL (≈ 42.6 µM). The MIC90 is 64 µg/mL (≈ 170 µM) in [7] and 0.25 µg/mL (≈ 0.666 µM) in [8].
As for `C[C@H]1COc2c(N3CCN(C)CC3)c(F)cc3c(=O)c(C(=O)O)cn1c23.C[C@H]1COc2c(N3CCN(C)CC3)c(F)cc3c(=O)c(C(=O)O)cn1c23.O` [LEVOFLOXACIN], the MIC50 in [1] was found to be 0.25 µg/mL; against Mycobacterium avium [2], 8 µg/mL; in the data set on Mycobacterium avium [3] it was 8 µg/mL; in the data set with Mycobacteroides chelonae, 32 µg/mL; against Mycobacterium kansasii it was 0.25 µg/mL; in data set [6] it was 8 µg/mL. Further, the results for the MIC50 in [7] and in data set [8] were 64 µg/mL and 0.5 µg/mL, respectively. Besides, the MIC90 in [1] came out at 0.5 µg/mL; against Mycobacterium avium [2] it was 32 µg/mL; against Mycobacterium avium [3] it was 32 µg/mL; against Mycobacteroides chelonae it was 64 µg/mL; with Mycobacterium kansasii it was 1 µg/mL; in [6], 32 µg/mL. The MIC90 in data set [7] was 128 µg/mL; in data set [8] it was 0.5 µg/mL. In the data set with Mycobacterium kansasii, this compound showed an MIC of 0.25 µg/mL.
For `COc1c(N2C[C@@H]3CCCN[C@@H]3C2)c(F)cc2c(=O)c(C(=O)O)cn(C3CC3)c12` [MOXIFLOXACIN], the MIC50 stood at 0.125 µg/mL (≈ 0.311 µM) in data set [1]; 32 µg/mL (≈ 79.7 µM) in the data set on Mycobacteroides chelonae; 0.125 µg/mL (≈ 0.311 µM) against Mycobacterium kansasii; 2 µg/mL (≈ 4.98 µM) in data set [6]; 64 µg/mL (≈ 159 µM) in data set [7]; 0.25 µg/mL (≈ 0.623 µM) in data set [8]. For the same compound, the MIC90 in data set [1] worked out at 0.25 µg/mL (≈ 0.623 µM); in the data set on Mycobacteroides chelonae, 32 µg/mL (≈ 79.7 µM); against Mycobacterium kansasii, 0.25 µg/mL (≈ 0.623 µM); in data set [6], 8 µg/mL (≈ 19.9 µM); in data set [7] it was 128 µg/mL (≈ 319 µM); in data set [8], 0.25 µg/mL (≈ 0.623 µM).
For the compound `CO[C@H]1/C=C/O[C@@]2(C)Oc3c(C)c(O)c4c(O)c(c(/C=N/N5CCN(C)CC5)c(O)c4c3C2=O)NC(=O)/C(C)=C\C=C\[C@H](C)[C@H](O)[C@@H](C)[C@@H](O)[C@@H](C)[C@H](OC(C)=O)[C@@H]1C` [RIFAMPIN], the MIC50 in data set [1] is 32 µg/mL (≈ 38.9 µM); against Mycobacterium avium [2], 32 µg/mL (≈ 38.9 µM); in the data set on Mycobacterium avium [3] it was 32 µg/mL (≈ 38.9 µM); against Mycobacteroides chelonae it was more than 128 µg/mL; against Mycobacterium kansasii, 0.25 µg/mL (≈ 0.304 µM); in data set [6], 2 µg/mL (≈ 2.43 µM). In addition, the MIC50 was more than 128 µg/mL in [7] and 0.06 µg/mL (≈ 0.0729 µM) in [8]. Moreover, the MIC90 in data set [1] is 64 µg/mL (≈ 77.8 µM); in the data set with Mycobacterium avium [2], 128 µg/mL (≈ 156 µM); against Mycobacterium avium [3], 128 µg/mL (≈ 156 µM); against Mycobacteroides chelonae, more than 128 µg/mL; with Mycobacterium kansasii, 0.25 µg/mL (≈ 0.304 µM); in [6], 32 µg/mL (≈ 38.9 µM). For the same compound, the figures for the MIC90 in data set [7] and in data set [8] were more than 128 µg/mL and 0.125 µg/mL (≈ 0.152 µM), respectively. Besides, the minimal inhibitory concentration (MIC) (against Mycobacteroides chelonae; in data set [7]) was more than 128 µg/mL each time.
